Data taken from patent US20060030536A1, “Combination therapies for cancer and proliferative angiopathies” (University of South Florida, priority 2004, published 2006).

Assays:
Stat3 [1] = target: Stat3 (Homo sapiens, UniProt P40763); details: cited from earlier work
Jak2 = details: cited from earlier work
HIF-1α = experiment: Western blot of HIF-1α protein in tumor cells; format: cell-based, human; details: for HIF-1α protein level: A2058 (also A2056) human melanoma cells, constitutively active c-Src
[2] = system: MDA-MB-468 and MDA-MB453 cells; experiment: Flow cytometry cell cycle analysis; format: cell-based, human; details: 20 μM LY294002, 0.05 μM JSI-124, 48 h
Protocol: MDA-453 cells were treated with vehicle DMSO (control), 20 μM LY294002; 0.05 μM JSI-124 or 20+0.05 μM LY294002+JSI-124 for 48 h, followed by flow cytometry analysis.
Cell cycle analysis based on DNA content was performed as we described previously. At each time point, cells were harvested, counted, and washed twice with wash buffer (1 mg glucose per ml PBS). Cells (2×10^6) were suspended in 0.5 ml PBS, fixed in 5 ml of 70% ethanol for over night at −20° C., centrifuged, washed once with PBS and resuspended again in 1 ml of propidium iodide staining solution (50 jig propidium iodide, 100 units RNase A and 1 mg glucose per ml PBS), and incubated at room temperature in the dark for 30 min. The cells were then analyzed with FACScan (Becton Dickinson Immunocytometry, Calif.), ModFit LT and WinMDI V.2.8 cell cycle analysis software (Verity Software; Topsham, Me.). The cell cycle distribution is shown as the percentage of cells containing G1, S, G2, and M DNA judged by propidium iodide staining.
To determine the effect of combination treatment on cell cycle changes, MDA-MB-468 and MDA-MB453 cells were treated with the indicated concentrations of LY294002, JSI-124 or their combinations for 48 h, followed by flow cytometry analysis.

MDA-MB-468 cells [3] = experiment: Trypan blue dye exclusion assay (cell death); format: cell-based, human; details: 48 h
Protocol: MDA-MB-468 cells were treated with vehicle DMSO (control), 10 or 20 μM LY294002; 0.05 EM JSI-124; 10+0.05 μM LY294002+JSI-124; or 20+0.05 μM LY294002+JSI-124 for 48 h, followed by trypan blue dye exclusion assay. The numbers indicate the percentage of dead cells. Standard deviations are shown with error bars.
The trypan blue dye exclusion assay was performed by mixing 20 μl of cell suspension with 20 μl of 0.4% trypan blue dye before injecting into a hemocytometer and counting. The number of cells that absorbed the dye and those that exclude the dye were counted, from which the percentage of nonviable cell number to total cell number was calculated.
To determine whether the combination treatment is more beneficial than single agent treatment to induce breast cancer cell death, MDA-MB-468 cells were treated with the indicated concentrations of either drug alone or in combinations for 48 h, followed by trypan blue dye incorporation assays.

MDA-MB-468 cells [4] = experiment: TUNEL assay (apoptosis); format: cell-based, human; details: single agents: 20 μM LY294002; 0.1 or 0.05 μM JSI-124; 48 h
Protocol: The assay was performed following manufacturer's instruction using the APO-Direct kit. […] After removing the DNA labeling solution by rinsing cells with Rinsing Buffer, the cells were incubated with the Propidium Iodide/RNase A solution, incubated for 30 min at room temperature in the dark, and then analyzed by flow cytometry within 3 h of staining.

VEGF = experiment: Western blot of VEGF protein in tumor cells; format: cell-based, human
From the text: […] Fifty […] of nuclear or whole-cell extracts was used for Western blot analysis. HIF-1α rabbit polyclonal antibody (H-206) (1:500 dilution), HIF-1β mouse monoclonal antibody (1:1,500 dilution), AKT1 mouse monoclonal, anti-phospho-AKT rabbit polyclonal, anti-VEGF monoclonal antibody (1:1,000 dilution) were used for the Western blot analyses. Horseradish peroxidase-conjugated sheep anti-mouse and donkey anti-rabbit or anti-goat secondary antibodies were used at 1:2,000 and 1:5,000 dilutions, respectively. The signal was developed with SuperSignal West Pico Chemiluminescent Substrate (PIERCE).

Stat3 [5] = experiment: EMSA of Stat3 DNA-binding activity in nuclear extracts; format: cell-based, human; details: for Stat3 DNA-binding activity: A2058 (also A2056) human melanoma cells
Protocol: Nuclear extracts (1-8 μg of total protein) were incubated with the ^32P-radiolabled hSEE (high-affinity Sis-Inducible Element) oligonucleotide probe. Protein-DNA complexes were resolved by 5% non-denatured polyacrylamide gel electrophoresis (PAGE) and specific STAT/DNA complexes were detected by autoradiography.

[6] = system: PI3k/Akt or Mek/Erk pathways; details: cited from earlier work
AKT1 mRNA = experiment: Microarray gene expression database, AKT1 mRNA; format: cell-based; details: MDA-MB435 human breast cancer cell line
[7] = EGF stimulation, DU145 human prostate cancer cells (data not shown)

Stat3 (Homo sapiens, UniProt P40763), sequence (P40763 whole entry): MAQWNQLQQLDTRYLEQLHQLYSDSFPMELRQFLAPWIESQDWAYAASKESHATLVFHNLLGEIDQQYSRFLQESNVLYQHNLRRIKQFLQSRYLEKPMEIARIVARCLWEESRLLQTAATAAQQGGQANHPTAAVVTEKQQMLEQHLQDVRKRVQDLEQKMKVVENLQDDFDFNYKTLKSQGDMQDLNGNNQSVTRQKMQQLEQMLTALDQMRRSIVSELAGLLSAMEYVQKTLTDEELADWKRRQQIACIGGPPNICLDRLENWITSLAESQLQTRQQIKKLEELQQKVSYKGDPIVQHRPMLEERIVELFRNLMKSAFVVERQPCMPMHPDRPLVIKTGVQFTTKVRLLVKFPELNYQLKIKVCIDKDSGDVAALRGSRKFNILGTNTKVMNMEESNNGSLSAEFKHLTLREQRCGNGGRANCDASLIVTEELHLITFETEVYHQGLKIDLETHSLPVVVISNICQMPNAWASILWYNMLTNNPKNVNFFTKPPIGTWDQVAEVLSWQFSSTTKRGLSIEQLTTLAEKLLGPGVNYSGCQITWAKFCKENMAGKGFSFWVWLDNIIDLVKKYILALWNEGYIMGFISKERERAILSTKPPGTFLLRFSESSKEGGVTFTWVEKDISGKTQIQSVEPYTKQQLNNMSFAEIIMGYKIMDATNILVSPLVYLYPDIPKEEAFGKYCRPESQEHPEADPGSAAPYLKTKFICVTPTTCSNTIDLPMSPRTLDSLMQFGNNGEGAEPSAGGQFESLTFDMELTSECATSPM

CC(=O)OC(C)(C)/C=C/C(=O)[C@](C)(O)[C@H]1[C@H](O)C[C@@]2(C)[C@@H]3CC=C4[C@@H](C=C(O)C(=O)C4(C)C)[C@]3(C)C(=O)C[C@]12C [Cucurbitacin E]
Stat3 activation (Stat3 [1]): suppress both Stat3 and Jak2 activation
Jak2 activation (Jak2): suppress both Stat3 and Jak2 activation

C[C@@H]1C[C@@H]([C@H](O)CC2CC(=O)NC(=O)C2)C(=O)[C@@H](C)C1 [cycloheximide]
IL-6-induced HIF-1α expression (HIF-1α; MCF-7 cells, 20 ng/ml IL-6, protein synthesis blocked): attenuation of HIF-1α expression

O=c1cc(N2CCOCC2)oc2c(-c3ccccc3)cccc12 [LY294002, 2-(4-morpholinyl)-8-phenyl-4H-1-benzopyran-4-one]
accumulation in G0/G1 phase [2]: not either single drug treatment
cell death (MDA-MB-468 cells [3]; 20 μM LY294002 alone): 14%
apoptosis induction (MDA-MB-468 cells [4]): Little apoptosis induction

CC(=O)OC(C)(C)/C=C/C(=O)[C@](C)(O)[C@H]1[C@H](O)C[C@@]2(C)[C@@H]3CC=C4[C@H](C[C@H](O)C(=O)C4(C)C)[C@]3(C)C(=O)C[C@]12C [Cucurbitacin B]
Stat3 activation (Stat3 [1]): suppress both Stat3 and Jak2 activation
Jak2 activation (Jak2): suppress both Stat3 and Jak2 activation

heregulin
HIF-1α expression (HIF-1α; MCF-7 cells, heregulin): induces HIF-1α expression
VEGF expression (VEGF; control MCF-7 cells, heregulin): upregulates VEGF expression
activated Stat3 (Stat3 [5]; MCF-7 cells, heregulin at 100 ng/ml): detectable levels of activated Stat3

Cc1cc(Nc2ncc3cc(-c4c(Cl)cccc4Cl)c(=O)n(C)c3n2)ccc1F [PD180970]
HIF-1α protein level (HIF-1α): dose-dependent reduction in HIF-1α protein level
Stat3 DNA-binding activity (Stat3 [5]): parallel reduction in Stat3 DNA-binding activity

CC(C)(O)/C=C/C(=O)[C@](C)(O)C1[C@H](O)C[C@@]2(C)C3CC=C4C(C=C(O)C(=O)C4(C)C)[C@]3(C)C(=O)C[C@]12C (some centres unmarked) [JSI-124, Cucurbitacin I]
Stat3 activation (Stat3 [1]): suppress both Stat3 and Jak2 activation
Jak2 activation (Jak2): suppress both Stat3 and Jak2 activation
inhibition of PI3k/Akt or Mek/Erk pathways [6]: does not inhibit the PI3k/Akt or Mek/Erk pathways
accumulation in G0/G1 phase [2]: not either single drug treatment
cell death (MDA-MB-468 cells [3]; 0.05 μM JSI-124 alone): 7%
apoptosis induction (MDA-MB-468 cells [4]): Little apoptosis induction

CCN(CC)CCOc1ccc(Nc2ncc3cc(-c4c(Cl)cccc4Cl)c(=O)n(C)c3n2)cc1 [PD166285]
HIF-1α protein level (HIF-1α): dose-dependent reduction in HIF-1α protein level
Stat3 DNA-binding activity (Stat3 [5]): parallel reduction in Stat3 DNA-binding activity

Cucurbitacin Q
Stat3 activation (Stat3 [1]): suppress Stat3 activation
Jak2 activation (Jak2): not Jak2 activation

CCC(O)[NH+]1CC[NH+](C(O)CC)CC1.[Cl][Pt-2]([Cl])([Cl])([Cl])([Cl])[Cl] (centres unmarked) [IS3 295]
HIF-1α expression (HIF-1α; DU145 tumor cells): reduction in the expression of both HIF-1α and VEGF
VEGF expression (VEGF; DU145 tumor cells): reduction in the expression of both HIF-1α and VEGF
Stat3 activity (DNA-binding) (Stat3 [5]; DU145 prostate cancer cells): reduction in Stat3 activity in a dose-dependent manner

Stat3 antisense oligonucleotide: antisense nucleic acid 5′-AAAAAGTGCCCAGATTGCCC-3′ used to knock down Stat3 expression (listed as DNA, chemistry not given here)
HIF-1α upregulation (HIF-1α; [7]): required for both HIF-1α and VEGF upregulation by EGF stimulation
AKT1 mRNA expression (AKT1 mRNA): reduction in AKT1 mRNA expression
VEGF upregulation (VEGF; [7]): required for both HIF-1α and VEGF upregulation by EGF stimulation
